Seven compounds from EP0498331B1, “N-(aryloxyalkyl)heteroaryl-8-azabicyclo(3.2.1)octanes, intermediates and a process for the preparation thereof and their use as medicaments” (HOECHST-ROUSSEL PHARMACEUTICALS INCORPORATED, priority 1991, dated 1992) can be followed below.

Where a name gives a salt, the structure may show the parent alone. Read-outs that look alike come from different tables or passages of the source.

In assay [1] the target is T1, serotonin (5-hydroxytryptamine [5HT]) uptake (Rattus norvegicus, UniProt P31652).
T1 construct: Either whole brain minus cerebella or hypothalmus is weighed and homogenized in 9 volumes of ice-cold 0.32 M sucrose; from tissue; host or cells: Male Wistar rat brain (whole brain minus cerebella, or hypothalamus), S1 supernatant / synaptosomes
The assay is described as follows: ³H-serotonin uptake in rat whole brain and hypothalamic synaptosomes. The assay is classed as biochemical. As to conditions: inhibition of [³H]-5HT uptake, 50 nM ³H-5HT, rat whole brain minus cerebella or hypothalamus, 37°C for 5 minutes; log-probit analysis; read-out: 5-HT-IC₅₀. The method, then:
This activity is determined in an assay which measures ³H-serotonin uptake in rat whole brain and hypothalamic synaptosomes. The assay described below is used as a biochemical screen for potential antidepressants which block serotonin (5-hydroxytryptamine [5HT]) uptake.
1. Krebs-Henseleit Bicarbonate Buffer, pH 7.4 (KHBB): Prepare a 1 liter batch containing the following salts.
The batch is aerated for 60 minutes with 95% 0₂/5% CO₂, the pH is checked to insure it is at 7.4 ± 0.1. 2. Add 0.32 M sucrose: 21.9 g of sucrose, q.s. to 200 ml. 3. A 0.1mM stock solution of serotonin creatinine SO₄ is made up in 0.01 N HCl. This is used to dilute the specific activity of the radiolabeled 5HT. 4. 5-[1,2-³H(N)]-Hydroxytryptamine creatinine sulfate (serotonin) specific activity 20-30 Ci/mmol is used. The final desired concentration of ³H-5HT in the assay is 50 nM. The dilution factor is 0.8. The KHBB is made up to contain 62.5 nM of [³H]-5HT. Add to 100 ml of KHBB.
5. For most assays, a 1mM stock solution of the test compound is made up in a suitable solvent and serially diluted such that the final concentration in the assay ranges from 2 X 10⁻⁸ to 2 X 10⁻⁵M. Seven concentrations are used for each assay.
Male Wistar rats are decapitated and the brain rapidly removed. Either whole brain minus cerebella or hypothalmus is weighed and homogenized in 9 volumes of ice-cold 0.32 M sucrose using a Potter-Elvejhem homogenizer. The homogenate is centrifuged at 1000 g for 10 minutes at 0-4°C. The supernatant (S₁) is decanted and is used for uptake determination.
800 µl KHBB + [³H]-5HT 20 µl Vehicle or appropriate drug 200 µl Tissue suspension concentration
Tubes are incubated at 37°C under a 95%O₂/5% CO₂ atmosphere for 5 minutes. For each assay, 3 tubes are incubated with 20 µl of vehicle at 0°C in an ice bath. After incubation all tubes are immediately centrifuged at 4000 g for 10 minutes. The supernatant fluid is aspirated and the pellets dissolved by adding 1 ml of solubilizer (Triton X-100 and 50% ethanol, 1:4 v/v). The tubes are vigorously vortexted, decanted into scintillation vials, and counted in 10 ml of Liquiscint scintillation counting cocktail. Active uptake is the difference between cpm at 37°C and 0°C. The per cent inhibition at each drug concentration is the mean of three determinations. IC₅₀ values are derived from log-probit analysis.

Assay [2] relates to CK-1 male mice. The assay is described as follows: climbing mice assay (antagonism of apomorphine-induced climbing). The assay is classed as in vivo. As to conditions: Mus musculus, ip, read-out: CLIMBING MOUSE ASSAY (ED₅₀ mg/kg, ip). On the procedure: The compounds of the present invention are useful for treating psychoses by virtue of their ability to elicit an antipsychotic response in animals. Antipsychotic activity is determined in the climbing mice assay by a method similar to those described by P. Protais, et al., Psychopharmacol., 50:1(1976) and B. Costall, Eur. J. Pharmacol., 50:39 (1978).
Subject CK-1 male mice (23-27 grams) are grouped-housed under standard laboratory conditions. The mice are individually placed in wire mesh stick cages (4" X 10") and are allowed one hour for adaption and exploration of the new environment. Then apomorphine is injected subcutaneously at 1.5 mg/kg, a dose causing climbing in all subjects for 30 minutes. Compounds to be tested for antipsychotic activity are injected intraperitoneally or given oral doses at various time intervals, e.g. 30 minutes, 60 minutes, etc. prior to the apomorphine challenge at a screening dose of 10-60 mg/kg.
For evaluation of climbing, 3 readings are taken at 10, 20 and 30 minutes after apomorphine administration according to the following scale:
Mice consistently climbing before the injection of apomorphine are discarded.
With fully-developed apomorphine climbing, the animals are hanging on to the cage walls, rather motionless, over longer periods of time. By contrast, climbs due to mere motor stimulation usually only last a few seconds.
The climbing scores are individually totaled (maximal score: 6 per mouse over 3 readings) and the total score of the control group (vehicle intraperitoneally-apomorphine subcutaneously) is set to 100%. ED₅₀ values with 95% confidence limits, calculated by a linear regression analysis, of representative compounds of the present invention as well as a standard antipsychotic agent are presented in Table 1.

T1 sequence (P31652 whole entry): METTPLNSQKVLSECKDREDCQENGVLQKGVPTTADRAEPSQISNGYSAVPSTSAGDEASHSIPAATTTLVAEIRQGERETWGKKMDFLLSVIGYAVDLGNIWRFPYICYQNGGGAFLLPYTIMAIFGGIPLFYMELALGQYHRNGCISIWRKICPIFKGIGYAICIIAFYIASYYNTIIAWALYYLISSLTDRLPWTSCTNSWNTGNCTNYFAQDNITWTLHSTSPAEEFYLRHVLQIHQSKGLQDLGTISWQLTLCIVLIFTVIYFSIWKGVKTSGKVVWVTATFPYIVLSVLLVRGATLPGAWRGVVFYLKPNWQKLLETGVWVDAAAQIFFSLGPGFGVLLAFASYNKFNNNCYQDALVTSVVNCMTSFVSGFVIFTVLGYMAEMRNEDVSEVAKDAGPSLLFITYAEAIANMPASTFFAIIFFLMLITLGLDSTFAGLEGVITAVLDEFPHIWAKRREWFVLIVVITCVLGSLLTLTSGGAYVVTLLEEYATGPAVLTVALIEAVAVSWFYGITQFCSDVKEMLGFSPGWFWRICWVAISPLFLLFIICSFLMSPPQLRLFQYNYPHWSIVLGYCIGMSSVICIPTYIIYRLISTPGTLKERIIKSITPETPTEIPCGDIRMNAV

On to `COc1cc(C(C)=O)ccc1OCCCCN1C2CCC1CC(c1n[nH]c3cc(F)ccc13)C2` (stereo not shown) [[4-[4-[3-[6-Fluoro-1H-indazol-3-yl]-8-azabicyclo[3.2.1]-octan-8-yl]butoxy]-3-methoxyphenyl]ethanone], for which the IC50 in assay [1] came to 0.02 µM. As to `COc1cc(C(C)=O)ccc1OCCN1C2CCC1CC(c1noc3cc(F)ccc13)C2` (stereo not shown) [[4-[2-[3-[6-Fluoro-1,2-benzisoxazol-3-yl]-8-azabicyclo[3.2.1]octan-8-yl]ethoxy]-3-methoxyphenyl]ethanone fumarate], the ED50 in assay [2] was 12.5 mg/kg. `COc1cc(C(C)=O)ccc1OCCN1C2CCC1CC(c1noc3ccccc13)C2` (stereo not shown) [[4-[2-[3-[1,2-Benzisoxazol-3-yl]-8-azabicyclo[3.2.1]octan-8-yl]ethoxy]-3-methoxyphenyl]ethanone fumarate]: in assay [1], the IC50 stood at 0.01 µM. The same measure, in the same setting: with `COc1cc(C(C)=O)ccc1OCCCCN1C2CCC1CC(c1nsc3ccccc13)C2` (stereo not shown) [[4-[4-[3-[1,2-Benzisothiazol-3-yl]-8-azabicyclo[3.2.1]octan-8-yl]butoxy]-3-methoxyphenyl]ethanone monohydrochloride] the figure was 0.027 µM.

Consider `COc1cc(C(C)=O)ccc1OCCCN1C2CCC1CC(c1noc3cc(F)ccc13)C2` (stereo not shown) [[4-[3-[3-[6-Fluoro-1,2-benzisoxazol-3-yl]-8-azabicyclo[3.2.1]octan-8-yl]propoxy]-3-methoxyphenyl] ethanone monohydrochloride], for which the ED50 in assay [2] stood at 5 mg/kg. In the case of `CN1CCN(C2=Nc3cc(Cl)ccc3Nc3ccccc32)CC1` [Clozapine, reference compound], in assay [2] (apomorphine 1.5 mg/kg subcutaneously, climbing score vs control group set to 100%, linear regression analysis), the ED50 came to 8.1 mg/kg.

With `COc1cc(C(C)=O)ccc1OCCCCN1C2CCC1CC(c1n[nH]c3ccccc13)C2` (stereo not shown) [[4-[4-[3-[1H-Indazol-3-yl]-8-azabicyclo[3.2.1]octan-8-yl]butoxy]-3-methoxyphenyl]ethanone fumarate hemihydrate], the IC50 in assay [1] was 0.07 µM.
